Legend:
human ACC1 = target: T1, human ACC1 (Homo sapiens, UniProt Q13085); test: Human ACC enzymatic activity assay (ACC1); type: biochemical; settings: purified human ACC1; read-out: EA-CoA hACC 1 IC50
T1 construct: purchased BPS Bioscience
Protocol: (§1) Human ACC enzymatic activity assays were performed by using purified human ACC1 and ACC2 proteins (BPS Bioscience). ACC1 and ACC2 proteins were diluted in 24.5 μL reaction buffer (50 mM HEPES pH 7.5, 10 mM MgCl2, 2.0 mM DTT, 4.0 mM ATP, 15 mM ^13C-NaHCO3, 0.75 mg/mL BSA, 0.5 mM sodium citrate), and final concentrations of ACC1 and ACC2 were 0.4 μg/mL and 0.48 μg/mL. For each reaction, 0.5 μL of serial diluted compounds were prepared in DMSO in duplicate or triplicate and mixed with the above 24.5 μL reaction mixtures with ACC proteins at 37° C. for 10 min. Meanwhile, 25 μL of reaction buffer plus acetyl-CoA (final concentration: 5 μM) was prepared freshly and added to the above 25 μL mixture to initiate the reaction. After incubation at 37° C. for 1-2 hours, 100 μl ice-cold 10% TCA with malonyl-^13C3-CoA (final concentration: 40 nM, Sigma-Aldrich) was added to terminate the reaction. For LC-MS/MS analysis, 300 μL quenching buffer (acetonitrile:methanol=1:1, 20 μM carbutamide as internal standard) was added to each tube and mixed well. Samples were then centrifuged at 14,000 rpm for 10 min (Eppendorf) and supernatants were loaded onto LC-MS/MS for quantitation of […] (Gao et al., Journal of chromatography B, Analytical technologies in the biomedical and life sciences 853, 303-313 (2007)).
(§2) Shimadzu LC system was used for sample analysis consisting of system controller (Shimadzu CBM-20A), autosampler (Shimadzu SIL-20A), pump A and B (Shimadzu LC-20AD), column oven (Shimadzu CTO-20A), and analytical column (Phenomenex Gemini 5u C18 11A, 100×2 mm). LC was running at 200 μL/min in the binary gradient mode with mobile phase A (5 mM Ammonium Acetate and 5 mM DMBA in water (1,3-Dimethylbutylamine)) and B (methanol). The samples were analyzed on an AB Sciex QTrap4000 LC-MS/MS triple quadrupole mass spectrometer (Applied Biosystems). Malonyl-CoA and malonyl-13C-CoA were monitored in positive ion mode following MRM transitions at 854.2/347.1 and 855.1/246.1, respectively. The product and internal standard were coeluted to the mass spectrometer in 3 s with 50% H2O, 25% MeCN, 25% acetone, and 5 mM ammonium acetate. Ion chromatograms were integrated using the Analyst 1.5.2 software. Peak area ratios were compared against a standard curve and final cellular concentration of malonyl-CoA or production rate of malonyl-13C-CoA was calculated as pmoles/mg protein per minute.

human ACC2 = target: T2, human ACC2 (Homo sapiens, UniProt O00763); test: Human ACC enzymatic activity assay (ACC2); type: biochemical; settings: purified human ACC2; read-out: EA-CoA hACC 2 IC50
T2 construct: purchased BPS Bioscience
Protocol: as §1, §2

[1] = PK study in male C57 mouse for Examples 14 and 15; type: in vivo; settings: for concentration at 0.5 h: 0.50 h
Protocol: Pharmacokinetic studies were carried out with male C57 mouse. Compounds (Example 14 and Example 15) were each formulated in 5% DMSO+10% Solutol HS 15+85% Saline, and dosed at 1 mpk for IV injection (5 mL/kg) and 10 mpk for oral gavage (10 mUkg). Plasma samples at various time points were quantitated with LC-MS. Data reported were average of three mice.
Tables 1 and 2 below show plasma concentrations (ng/mL) and PK parameters of Example 14 in male C57 mouse after 1 mpk IV injection and 10 mpk PO gavage, respectively. The plasma concentration (ng/mL) of the acid compound, Example 15, was also measured and reported below.
Tables 3 and 4 below show plasma concentrations (ng/mL) and PK parameters of Example 15 in male C57 mouse after 1 mpk IV injection and 10 mpk PO gavage, respectively.

[2] = male, C57, mouse, plasma, iv, 1 mg/kg, Example 14 dosed 1 mpk IV, analyte = labelled compound
[3] = male, C57, mouse, plasma, iv, 1 mg/kg, Example 15 dosed 1 mpk IV
[4] = male, C57, mouse, plasma, po, 10 mg/kg, Example 14 dosed 10 mpk PO gavage, analyte = labelled compound
[5] = male, C57, mouse, plasma, po, 10 mg/kg, Example 15 dosed 10 mpk PO gavage
[6] = plasma, 1 mg/kg, Example 15 dosed 1 mpk IV

T2 sequence (O00763 whole entry): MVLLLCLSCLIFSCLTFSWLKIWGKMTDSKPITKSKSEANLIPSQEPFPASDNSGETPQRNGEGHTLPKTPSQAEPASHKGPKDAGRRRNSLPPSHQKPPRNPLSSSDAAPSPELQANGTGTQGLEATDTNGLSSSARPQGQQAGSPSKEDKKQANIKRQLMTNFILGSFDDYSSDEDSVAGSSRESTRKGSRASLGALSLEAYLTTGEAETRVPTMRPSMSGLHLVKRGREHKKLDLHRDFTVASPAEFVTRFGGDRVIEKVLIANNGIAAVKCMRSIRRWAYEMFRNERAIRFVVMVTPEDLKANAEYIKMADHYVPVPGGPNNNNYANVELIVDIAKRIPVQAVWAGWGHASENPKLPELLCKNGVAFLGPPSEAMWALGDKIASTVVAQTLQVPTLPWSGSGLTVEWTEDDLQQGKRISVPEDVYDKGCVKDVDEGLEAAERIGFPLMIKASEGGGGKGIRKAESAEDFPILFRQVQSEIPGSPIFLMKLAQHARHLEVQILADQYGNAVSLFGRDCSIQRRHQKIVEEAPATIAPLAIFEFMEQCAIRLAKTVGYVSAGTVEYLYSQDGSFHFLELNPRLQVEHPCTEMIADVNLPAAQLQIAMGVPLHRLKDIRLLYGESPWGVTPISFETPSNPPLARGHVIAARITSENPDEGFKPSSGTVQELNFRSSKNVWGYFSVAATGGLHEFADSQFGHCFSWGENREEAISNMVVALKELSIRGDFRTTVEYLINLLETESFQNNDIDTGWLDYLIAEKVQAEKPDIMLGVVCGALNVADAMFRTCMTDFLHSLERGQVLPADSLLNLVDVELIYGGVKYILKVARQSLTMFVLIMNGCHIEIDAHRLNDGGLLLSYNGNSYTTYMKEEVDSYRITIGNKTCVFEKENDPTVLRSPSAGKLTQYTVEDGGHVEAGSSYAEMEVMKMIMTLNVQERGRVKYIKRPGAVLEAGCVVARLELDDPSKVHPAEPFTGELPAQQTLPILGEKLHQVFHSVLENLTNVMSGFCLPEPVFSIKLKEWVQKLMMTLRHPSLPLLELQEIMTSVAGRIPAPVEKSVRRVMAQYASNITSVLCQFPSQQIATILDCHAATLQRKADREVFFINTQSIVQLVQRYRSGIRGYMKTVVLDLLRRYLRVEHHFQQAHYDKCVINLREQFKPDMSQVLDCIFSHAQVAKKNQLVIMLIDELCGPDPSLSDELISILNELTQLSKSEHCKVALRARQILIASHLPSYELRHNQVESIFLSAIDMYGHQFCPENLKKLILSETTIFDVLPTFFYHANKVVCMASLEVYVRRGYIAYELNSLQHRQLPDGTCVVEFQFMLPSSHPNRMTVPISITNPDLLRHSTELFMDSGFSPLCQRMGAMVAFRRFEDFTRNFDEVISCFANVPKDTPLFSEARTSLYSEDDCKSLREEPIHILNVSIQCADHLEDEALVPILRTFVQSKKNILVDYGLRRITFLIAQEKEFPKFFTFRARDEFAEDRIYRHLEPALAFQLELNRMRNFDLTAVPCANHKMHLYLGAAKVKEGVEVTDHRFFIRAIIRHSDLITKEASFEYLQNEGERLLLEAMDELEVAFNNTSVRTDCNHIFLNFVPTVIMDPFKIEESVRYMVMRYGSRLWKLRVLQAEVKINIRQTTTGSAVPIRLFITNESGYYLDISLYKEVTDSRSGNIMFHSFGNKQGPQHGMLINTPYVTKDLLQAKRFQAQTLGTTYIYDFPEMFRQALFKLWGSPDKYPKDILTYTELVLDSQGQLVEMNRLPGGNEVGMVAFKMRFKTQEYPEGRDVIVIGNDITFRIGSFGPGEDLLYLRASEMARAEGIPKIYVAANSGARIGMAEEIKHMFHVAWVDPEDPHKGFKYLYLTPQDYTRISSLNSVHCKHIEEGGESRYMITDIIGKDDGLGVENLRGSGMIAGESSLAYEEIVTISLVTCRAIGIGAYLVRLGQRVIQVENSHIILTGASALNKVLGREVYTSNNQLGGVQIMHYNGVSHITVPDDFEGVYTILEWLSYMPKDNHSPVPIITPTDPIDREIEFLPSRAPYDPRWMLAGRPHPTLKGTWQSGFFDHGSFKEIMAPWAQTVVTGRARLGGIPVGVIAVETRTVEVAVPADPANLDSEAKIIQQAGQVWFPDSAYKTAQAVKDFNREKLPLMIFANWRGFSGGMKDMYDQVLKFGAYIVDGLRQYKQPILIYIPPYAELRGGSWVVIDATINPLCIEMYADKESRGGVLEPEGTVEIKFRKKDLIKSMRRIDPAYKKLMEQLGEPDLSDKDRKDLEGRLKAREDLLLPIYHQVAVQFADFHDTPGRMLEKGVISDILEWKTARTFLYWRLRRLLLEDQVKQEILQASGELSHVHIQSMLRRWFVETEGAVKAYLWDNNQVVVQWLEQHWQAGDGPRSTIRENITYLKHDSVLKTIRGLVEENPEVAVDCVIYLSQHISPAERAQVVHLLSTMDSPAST

IC50 (human ACC1): 27.5 nM
IC50 (human ACC2): 33 nM
Plasma Concentration, Mean ([1]; Example 14 dosed 1 mpk IV, 24.00 h, analyte = labelled compound): BLQ
Plasma Concentration, Mean ([1]; Example 15 dosed 1 mpk IV, 4.00 h): BLQ
Plasma Concentration, Mean ([1]; Example 15 dosed 1 mpk IV, 8.00 h): BLQ
Plasma Concentration, Mean ([1]; Example 15 dosed 1 mpk IV, 24.00 h): BLQ
F ([1]; Example 15 dosed 10 mpk PO gavage): 1.7%
Plasma Concentration, Mean ([1]; Example 15 dosed 10 mpk PO gavage, 24.00 h): BLQ
concentration at 0.08 h [1, 2]: 122 ng/mL
concentration at 0.25 h [1, 2]: 161 ng/mL
concentration at 0.5 h [1, 2]: 107 ng/mL
concentration at 1 h [1, 2]: 55 ng/mL
concentration at 2 h [1, 2]: 16 ng/mL
concentration at 4 h ([1]; male, C57, mouse, plasma, iv, 1 mg/kg, Example 14 dosed 1 mpk IV, 4.00 h, analyte = labelled compound): 3.4 ng/mL
concentration at 8 h ([1]; male, C57, mouse, plasma, iv, 1 mg/kg, Example 14 dosed 1 mpk IV, 8.00 h, analyte = labelled compound): 1.5 ng/mL
MRT [1, 3]: 6.6 min
concentration at 0.08 h [1, 3]: 3010 ng/mL
concentration at 0.25 h [1, 3]: 414 ng/mL
concentration at 0.5 h [1, 3]: 95 ng/mL
concentration at 1 h [1, 3]: 28 ng/mL
concentration at 2 h [1, 3]: 6.6 ng/mL
concentration at 0.25 h [1, 4]: 152 ng/mL
concentration at 0.5 h [1, 4]: 168 ng/mL
concentration at 1 h [1, 4]: 146 ng/mL
concentration at 2 h [1, 4]: 84 ng/mL
concentration at 4 h ([1]; male, C57, mouse, plasma, po, 10 mg/kg, Example 14 dosed 10 mpk PO gavage, 4.00 h, analyte = labelled compound): 43 ng/mL
concentration at 8 h ([1]; male, C57, mouse, plasma, po, 10 mg/kg, Example 14 dosed 10 mpk PO gavage, 8.00 h, analyte = labelled compound): 23 ng/mL
concentration at 24 h ([1]; male, C57, mouse, plasma, po, 10 mg/kg, Example 14 dosed 10 mpk PO gavage, 24.00 h, analyte = labelled compound): 2.1 ng/mL
Cmax [1, 4]: 185 ng/mL
MRT [1, 4]: 186 min
Tmax [1, 4]: 34.8 min
Cmax [1, 5]: 164 ng/mL
MRT [1, 5]: 59.4 min
Tmax [1, 5]: 15 min
concentration at 0.25 h [1, 5]: 164 ng/mL
concentration at 0.5 h [1, 5]: 99 ng/mL
concentration at 1 h [1, 5]: 63 ng/mL
concentration at 2 h [1, 5]: 11 ng/mL
concentration at 4 h ([1]; male, C57, mouse, plasma, po, 10 mg/kg, Example 15 dosed 10 mpk PO gavage, 4.00 h): 3.2 ng/mL
concentration at 8 h ([1]; male, C57, mouse, plasma, po, 10 mg/kg, Example 15 dosed 10 mpk PO gavage, 8.00 h): 2 ng/mL
Vd [1, 6]: 0.49 L/kg
clearance [1, 6]: 23.3 mL/min/kg
half-life [1, 6]: 17.4 min
Compound: COc1cc(C(=O)N2CCC3(CC2)Cc2ccc(-c4cncc(C(=O)O)c4)cc2C(=O)O3)nc2c(OC)cccc12 [Example 15, 5-(1′-(4,8-dimethoxyquinoline-2-carbonyl)-1-oxospiro [isochroman-3,4′-piperidin]-7-yl)nicotinic acid]
